Data published in patent publication US20200113910A1, “TRIAZINETRIONE DERIVATIVES AND THEIR USE AS MODULATORS OF NEUROTROPHIN RECEPTOR AND RECEPTOR TYROSINE KINASES” (ALZECURE PHARMA AB, priority 2016, published 2020).

Columns and labels:
TrkB = molecular target: T1, TrkB (Homo sapiens, UniProt Q16620); assay: Enzyme Fragment Complementation cell-based assay, TrkB; conditions: for TrkB efficacy, % stimulation over 10 ng/mL of ligand: U2OS-cells over-expressing TrkB, ligand BDNF 10 ng/mL
T1 construct: expressed in transfected cells; host or cells: U2OS
T1 sequence (Q16620 32-822): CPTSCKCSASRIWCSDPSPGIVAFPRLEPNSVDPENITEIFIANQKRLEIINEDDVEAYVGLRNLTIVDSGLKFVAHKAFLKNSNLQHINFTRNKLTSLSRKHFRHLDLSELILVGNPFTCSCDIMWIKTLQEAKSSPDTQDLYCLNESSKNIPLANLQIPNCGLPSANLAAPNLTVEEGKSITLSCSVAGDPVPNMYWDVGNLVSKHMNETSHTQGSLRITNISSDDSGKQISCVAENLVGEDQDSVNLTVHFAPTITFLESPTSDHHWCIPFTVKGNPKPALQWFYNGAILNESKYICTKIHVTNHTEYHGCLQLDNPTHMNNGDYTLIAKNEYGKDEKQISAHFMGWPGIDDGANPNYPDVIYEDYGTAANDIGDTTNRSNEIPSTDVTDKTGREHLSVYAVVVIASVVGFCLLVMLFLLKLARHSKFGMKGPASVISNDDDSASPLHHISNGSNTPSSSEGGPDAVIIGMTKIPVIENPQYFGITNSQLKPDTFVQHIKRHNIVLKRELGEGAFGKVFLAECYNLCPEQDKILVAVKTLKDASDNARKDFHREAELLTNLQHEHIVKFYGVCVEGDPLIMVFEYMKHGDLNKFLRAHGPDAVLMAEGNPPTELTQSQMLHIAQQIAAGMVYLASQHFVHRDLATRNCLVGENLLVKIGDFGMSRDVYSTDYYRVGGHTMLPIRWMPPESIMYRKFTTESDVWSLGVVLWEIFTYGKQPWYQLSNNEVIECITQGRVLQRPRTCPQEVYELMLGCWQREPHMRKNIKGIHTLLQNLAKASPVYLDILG
From the text: (§1) A high throughput cell-based screen has been used to identify positive modulators of TrkA, TrkB and TrkC. The screen involves the use of cell-based assay overexpressing TrkA, TrkB or TrkC. The purpose of the assay is to identify compounds that modulate neurotrophin signalling (Forsell et al 2012). The assay can be used in inhibitor mode using a high concentration of ligand, in modulator mode using an intermediate concentration and in agonist mode using a low concentration of ligand.
(§2) The assay uses Enzyme Fragment Complementation (EFC) technique, which is a proximity-based assay. Briefly, cells used in this assay over-express two fusion proteins, i.e. the receptor, which can be either one of TrkA, TrkB, TrkC, IGF1R or FGFR1, fused to a small peptide of 8-galactosidase and an adaptor protein, i.e. SHC1 (or any other Trk-adaptor protein) fused to the major part of 8-galactosidase. […] The proximity between the small activating peptide on the receptor and the major part of 8-galactosidase on the adaptor protein leads to an active 8-galactosidase enzyme. The activation of the receptor is quantified by measuring the amount of active 8-galactosidase by its conversion of a non-luminescent substrate into a luminescent product.
(§3) U2OS-cells, over-expressing TrkA or TrkB or TrkC, are plated in 96- or 384-well plates and incubated overnight. Alternatively, cryopreserved HEK293-cells expressing IGFR1 or cryopreserved U2OS-cells expressing FGFR1 were plated in 96- or 384-well plates. On the following day, test compound was pre-mixed with ligand (NGF, BDNF, NT-3, IGF-1 or basic fibroblast growth factor (bFGF(FGF-2))) and the ligand-compound mixture is then added to the cells to yield a final ligand concentration of typically 10 ng/mL (or as indicated in FIGS. 3 and 4). After 3 hours of incubation at room temperature, the incubation is stopped by the addition of a β-galactosidase substrate mixture containing detergents. The substrate mixture is incubated for 60 minutes at ambient temperature. The luminescence is thereafter read by the use of a plate reader.
(§4) The potency is expressed as EC50 (pM) and the efficacy as % stimulation over 10 ng/mL of ligand . The ligands used was: NGF (for TrkA assay), BDNF (for TrkB assay), NT-3 (for TrkC assay) bFGF (for FGFR1 assay), IGF-1 (for IGFR1 assay), respectively.

[1] = test system: cellular prion protein (PrP^C); conditions: Suzuki et al., FEBS Open Bio 2016; cited from earlier work
C57/BI6 mice [2] = assay: Passive avoidance task, scopolamine-treated mice (Example 1); type: in vivo; conditions: 20 mg/kg i.p. once per day for 4 days; scopolamine 0.3 mg/kg s.c.; FIG. 1
Method: (§5) Passive avoidance (PA) is an aversive learning task based on classical (Pavlovian) fear conditioning that allows for analysis of both facilitation and impairment of memory function by adjusting the unconditioned stimulus, i.e. the electrical foot shock. Commonly a cognitive-impairing agent is administered to the animals to mimic the neurochemical disturbances present in various cognitive disorders e.g. cholinergic (scopolamine) and glutamatergic (MK-801) deficits.
(§6) Prior to testing, the animals are brought to the experimental room where they were allowed to habituate for 60 min. The test is conducted using a modified shuttle box with two communicating compartments of equal size with a small sliding door built into the separating wall and a stainless steel bar floor. One of the compartments is not illuminated and thus black whereas the other compartment (the light one) is illuminated by an electric bulb, installed on the top of a plexiglass cover. The PA training is conducted in a single session. […] Latency to cross over into the dark compartment (training latency) is recorded. […] The latency to cross over into the dark compartment with all four feet is measured (retention latency) as well as time in bright compartment and a number of other relevant parameters (e.g. number of visits in the dark compartment). […]

FGFR1 = molecular target: T2, FGFR1 (Homo sapiens, UniProt P11362); assay: Enzyme Fragment Complementation cell-based assay, FGFR1; conditions: U2OS-cells expressing FGFR1; ligand bFGF 10 ng/mL
T2 construct: expressed in transfected cells; host or cells: U2OS (cryopreserved)
T2 sequence (P11362 22-822): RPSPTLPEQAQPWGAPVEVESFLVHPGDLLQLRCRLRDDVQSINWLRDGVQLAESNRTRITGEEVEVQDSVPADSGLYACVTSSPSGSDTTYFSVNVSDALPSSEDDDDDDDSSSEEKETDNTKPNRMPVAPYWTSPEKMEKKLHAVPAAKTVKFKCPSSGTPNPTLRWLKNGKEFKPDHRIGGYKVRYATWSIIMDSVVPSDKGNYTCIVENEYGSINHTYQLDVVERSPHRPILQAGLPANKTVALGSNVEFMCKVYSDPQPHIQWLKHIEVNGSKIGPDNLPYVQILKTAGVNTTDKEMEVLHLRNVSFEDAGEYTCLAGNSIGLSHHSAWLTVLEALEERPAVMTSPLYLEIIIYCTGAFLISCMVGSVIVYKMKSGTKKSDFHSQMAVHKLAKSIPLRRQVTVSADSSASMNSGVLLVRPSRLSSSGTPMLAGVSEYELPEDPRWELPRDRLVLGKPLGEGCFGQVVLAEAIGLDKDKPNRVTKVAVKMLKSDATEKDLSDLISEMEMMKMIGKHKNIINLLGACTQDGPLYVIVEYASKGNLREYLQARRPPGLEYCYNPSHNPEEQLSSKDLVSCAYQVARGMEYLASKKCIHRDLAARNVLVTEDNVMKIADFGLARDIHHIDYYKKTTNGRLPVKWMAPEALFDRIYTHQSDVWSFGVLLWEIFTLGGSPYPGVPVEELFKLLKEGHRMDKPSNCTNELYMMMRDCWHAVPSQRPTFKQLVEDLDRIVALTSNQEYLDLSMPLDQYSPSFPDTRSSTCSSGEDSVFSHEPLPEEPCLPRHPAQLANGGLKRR
From the text: as §2, §3, §4

[3] = test system: ephrin type-B receptor 2 (EphB2); conditions: Suzuki et al., FEBS Open Bio 2016; cited from earlier work
IGF1R = molecular target: T3, IGF1R (Homo sapiens, UniProt P08069); assay: Enzyme Fragment Complementation cell-based assay, IGF1R; conditions: HEK293-cells expressing IGFR1; ligand IGF-1 10 ng/mL
T3 construct: expressed in transfected cells; host or cells: HEK293 (cryopreserved)
T3 sequence (P08069 31-736 limits assumed): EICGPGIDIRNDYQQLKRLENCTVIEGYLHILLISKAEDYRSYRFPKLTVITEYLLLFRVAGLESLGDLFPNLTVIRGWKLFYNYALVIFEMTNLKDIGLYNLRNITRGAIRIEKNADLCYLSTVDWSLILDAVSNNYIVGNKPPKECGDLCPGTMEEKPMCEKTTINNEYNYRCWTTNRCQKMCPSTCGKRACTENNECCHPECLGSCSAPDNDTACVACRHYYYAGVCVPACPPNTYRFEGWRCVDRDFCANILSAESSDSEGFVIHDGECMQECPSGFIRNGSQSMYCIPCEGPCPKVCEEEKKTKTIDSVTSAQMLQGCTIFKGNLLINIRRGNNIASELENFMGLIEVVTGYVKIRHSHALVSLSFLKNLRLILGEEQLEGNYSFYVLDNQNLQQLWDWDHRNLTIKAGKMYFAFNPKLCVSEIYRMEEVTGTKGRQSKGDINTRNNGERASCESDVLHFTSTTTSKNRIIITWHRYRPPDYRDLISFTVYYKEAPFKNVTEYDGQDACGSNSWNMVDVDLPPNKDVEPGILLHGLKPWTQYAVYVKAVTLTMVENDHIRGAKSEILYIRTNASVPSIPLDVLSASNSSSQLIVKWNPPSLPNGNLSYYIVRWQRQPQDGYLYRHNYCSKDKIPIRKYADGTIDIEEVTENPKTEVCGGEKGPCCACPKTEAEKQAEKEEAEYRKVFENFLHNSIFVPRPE
T3 sequence (P08069 741-1367 limits assumed): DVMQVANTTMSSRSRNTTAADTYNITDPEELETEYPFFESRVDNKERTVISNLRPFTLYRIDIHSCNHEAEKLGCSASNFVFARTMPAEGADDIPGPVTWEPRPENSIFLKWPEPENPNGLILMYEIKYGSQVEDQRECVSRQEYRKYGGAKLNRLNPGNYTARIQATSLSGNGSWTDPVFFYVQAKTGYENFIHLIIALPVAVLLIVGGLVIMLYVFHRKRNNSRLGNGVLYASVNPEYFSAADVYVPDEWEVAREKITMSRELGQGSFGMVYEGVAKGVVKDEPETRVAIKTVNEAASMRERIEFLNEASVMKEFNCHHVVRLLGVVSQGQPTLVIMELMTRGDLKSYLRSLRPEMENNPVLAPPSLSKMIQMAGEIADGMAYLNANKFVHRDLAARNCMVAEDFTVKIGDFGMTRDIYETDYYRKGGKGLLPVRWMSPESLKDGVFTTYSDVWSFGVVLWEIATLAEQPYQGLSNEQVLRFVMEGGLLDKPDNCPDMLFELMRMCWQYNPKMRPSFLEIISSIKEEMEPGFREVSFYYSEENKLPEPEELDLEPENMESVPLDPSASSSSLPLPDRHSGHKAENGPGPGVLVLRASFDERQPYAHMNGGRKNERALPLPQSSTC
From the text: as §2, §3, §4

TrkA = molecular target: T4, TrkA (Homo sapiens, UniProt P04629); assay: Enzyme Fragment Complementation cell-based assay, TrkA; conditions: U2OS-cells over-expressing TrkA; ligand NGF 10 ng/mL
T4 construct: expressed in transfected cells; host or cells: U2OS
T4 sequence (P04629 33-796): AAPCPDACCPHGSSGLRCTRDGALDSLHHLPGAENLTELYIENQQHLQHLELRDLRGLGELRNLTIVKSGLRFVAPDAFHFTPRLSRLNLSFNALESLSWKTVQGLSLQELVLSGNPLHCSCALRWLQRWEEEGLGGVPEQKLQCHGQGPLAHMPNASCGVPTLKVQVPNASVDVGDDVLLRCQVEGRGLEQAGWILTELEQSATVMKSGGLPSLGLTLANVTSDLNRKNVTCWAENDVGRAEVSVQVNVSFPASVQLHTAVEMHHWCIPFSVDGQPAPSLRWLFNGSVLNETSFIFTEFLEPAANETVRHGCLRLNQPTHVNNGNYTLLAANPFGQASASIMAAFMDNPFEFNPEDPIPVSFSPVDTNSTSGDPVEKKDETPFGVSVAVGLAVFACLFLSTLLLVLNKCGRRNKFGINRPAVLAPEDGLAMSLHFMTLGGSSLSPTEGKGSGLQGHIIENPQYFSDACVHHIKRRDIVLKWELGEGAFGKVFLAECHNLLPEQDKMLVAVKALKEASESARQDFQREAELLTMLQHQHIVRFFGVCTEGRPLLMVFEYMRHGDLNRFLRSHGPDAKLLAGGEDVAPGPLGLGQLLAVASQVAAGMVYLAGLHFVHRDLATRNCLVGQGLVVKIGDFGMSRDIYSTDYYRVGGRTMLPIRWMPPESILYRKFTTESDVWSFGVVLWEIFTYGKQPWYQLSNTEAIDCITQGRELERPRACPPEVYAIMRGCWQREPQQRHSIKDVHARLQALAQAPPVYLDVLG
From the text: as §1, §2, §3, §4

TrkC = molecular target: T5, TrkC (Homo sapiens, UniProt Q16288); assay: Enzyme Fragment Complementation cell-based assay, TrkC; conditions: U2OS-cells over-expressing TrkC; ligand NT-3 10 ng/mL
T5 construct: expressed in transfected cells; host or cells: U2OS
T5 sequence (Q16288 32-839): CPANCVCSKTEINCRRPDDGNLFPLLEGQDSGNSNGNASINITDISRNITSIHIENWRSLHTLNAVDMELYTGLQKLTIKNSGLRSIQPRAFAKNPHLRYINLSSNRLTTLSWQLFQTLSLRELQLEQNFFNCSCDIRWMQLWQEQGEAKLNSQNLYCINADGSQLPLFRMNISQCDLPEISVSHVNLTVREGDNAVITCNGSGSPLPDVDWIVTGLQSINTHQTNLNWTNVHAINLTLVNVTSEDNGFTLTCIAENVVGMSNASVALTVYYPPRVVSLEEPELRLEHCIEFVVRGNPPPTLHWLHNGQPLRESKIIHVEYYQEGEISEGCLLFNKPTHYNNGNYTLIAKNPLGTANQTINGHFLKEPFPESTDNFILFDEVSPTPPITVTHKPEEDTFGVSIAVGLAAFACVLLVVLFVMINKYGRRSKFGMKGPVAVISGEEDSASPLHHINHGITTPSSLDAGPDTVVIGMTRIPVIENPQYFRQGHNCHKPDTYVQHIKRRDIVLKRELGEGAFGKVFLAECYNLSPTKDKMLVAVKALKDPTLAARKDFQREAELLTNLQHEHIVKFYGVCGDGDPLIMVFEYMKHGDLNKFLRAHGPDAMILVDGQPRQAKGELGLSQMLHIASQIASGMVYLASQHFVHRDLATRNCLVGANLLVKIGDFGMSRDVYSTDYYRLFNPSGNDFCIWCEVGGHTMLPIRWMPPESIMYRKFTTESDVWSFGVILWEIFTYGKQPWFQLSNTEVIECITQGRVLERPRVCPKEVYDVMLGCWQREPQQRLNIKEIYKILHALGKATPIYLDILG
From the text: as §1, §2, §3, §4

C57/BI6 mice [4] = assay: Passive avoidance task, MK-801-treated mice (Example 2); type: in vivo; conditions: different doses i.p. once per day for 4 days; MK-801 0.3 mg/kg s.c.; FIG. 2
Method: as §5, §6

[5] = FIG. 3, cells stimulated with or without BDNF

Compound | decrease of activity at the two highest concentrations tested, TrkB expressing cells (TrkB; [5]) | dose-response curve with BDNF as ligand in TrkB expressing cells (TrkB; [5]) | TrkB efficacy, % stimulation over 10 ng/mL of ligand (TrkB) [%] | inhibitory activity at the cellular prion protein (PrP^C) [1] | retention latency in passive avoidance task (cognitive function) (C57/BI6 mice [2]) | FGFR1 efficacy, % stimulation over 10 ng/mL of ligand (FGFR1) [%] | inhibition of binding of β-amyloid oligomers to EphB2 [3] [%] | IGF1R efficacy, % stimulation over 10 ng/mL of ligand (IGF1R) [%] | TrkA efficacy, % stimulation over 10 ng/mL of ligand (TrkA) [%] | TrkC efficacy, % stimulation over 10 ng/mL of ligand (TrkC) [%] | total time spent in bright compartment in passive avoidance task (cognitive function) (C57/BI6 mice [4])
Cc1cc(-n2c(=O)[nH]c(=O)n(C)c2=O)ccc1Oc1ccc(SC(F)(F)F)cc1 [Compound 1, 1-methyl-3-(3-methyl-4-{4-[(trifluoromethyl)sulfanyl]phenoxy}phenyl)-1,3,5-triazinane-2,4,6-trione] | significantly decreases | no clear dose-response curve | 124 | lack of similar inhibitory activity | increased retention latency | 73 | 30 | 83 | 109 | 87 | 
Cc1cc(-n2c(=O)[nH]c(=O)n(C)c2=O)ccc1Oc1ccc(S(=O)(=O)C(F)(F)F)cc1 [Compound 2, 1-methyl-3-[3-methyl-4-(4-trifluoromethanesulfonylphenoxy)phenyl]-1,3,5-triazinane-2,4,6-trione] | not observed |  | 232 |  |  | 43 |  | 25 | 138 | 70 | increased time spent in the bright area
Cc1cc(-n2c(=O)[nH]c(=O)n(C)c2=O)ccc1Oc1ccc([S+]([O-])C(F)(F)F)cc1 (centres unmarked) [Compound 3, 1-methyl-3-[3-methyl-4-(4-trifluoromethanesulfinylphenoxy)phenyl]-1,3,5-triazinane-2,4,6-trione] | not observed |  | 196 |  |  | 102 |  | 109 | 143 | 74 | 
Cc1cc(-n2c(=O)[nH]c(=O)n(-c3ccccc3)c2=O)ccc1Oc1ccc([S+]([O-])C(F)(F)F)cc1 (centres unmarked) [Compound 4, 1-[3-methyl-4-(4-trifluoromethanesulfinylphenoxy)phenyl]-3-phenyl-1,3,5-triazinane-2,4,6-trione] |  |  | 217 |  |  |  |  |  | 128 | 69 | 
Cc1cc(-n2c(=O)[nH]c(=O)n(-c3ccccc3)c2=O)ccc1Oc1ccc(SC(F)(F)F)cc1 [Compound 5, 1-(3-methyl-4-{4-[(trifluoromethyl)sulfanyl]phenoxy}phenyl)-3-phenyl-1,3,5-triazinane-2,4,6-trione] |  |  | 210 |  |  |  |  |  | 112 | 84 | 
Cc1cc(-n2c(=O)[nH]c(=O)n(-c3ccccc3)c2=O)ccc1Oc1ccc(S(=O)(=O)C(F)(F)F)cc1 [Compound 6, 1-[-3-methyl-4-(4-trifluoromethanesulfonylphenoxy)phenyl]-3-phenyl-1,3,5-triazinane-2,4,6-trione] |  |  | 300 |  |  |  |  |  | 147 | 124 | 
